In patent US5545738A, “Alfuzosin hydrochloride dihydrate” (Synthelabo, priority 1993, dated 1996):
Counter-ions that a name gives are not always drawn.

Assays:
[1] = Accelerated Test (100 °C and 120 °C, X-ray powder diffraction); format: physicochemical; settings: for crystal form change: 2 hours
Description: A 0.3 g-portion of each of the hydrates of alfuzosin hydrochloride was preserved in heaters (Sanyo) set to 100° C. and 120° C., for the confirmation of the stability of the respective hydrates. The physical stability of the respective samples was confirmed by X-ray powder diffraction.
In this test, the crystal state of the respective hydrates was monitored by X-ray powder diffraction every 30 minutes for 2 hours.

[2] = Drying Test (moisture content and crystal state under drying conditions); format: physicochemical; settings: for loss of water: 1 day
Description: The moisture content was measured with Karl Fischer Aquameter (Kyoto Electron Industry, MK-AII) for about 100 mg of a sample dissolved in methanol for moisture measurement. In turn, the dehydration behavior of the crystal water was measured by thermogravimetry and differential thermal analysis using TG/DTA200 thermogravimetric apparatus and SSC5030 Disc Station (Seiko). Concretely, approximately 5 mg of a sample was weighed into an open aluminum pan and analyzed at a rate of temperature increase of 10° C./m or 1° C./m. This analysis was carried out in a nitrogen atmosphere (flow rate: 100 ml/m).
Different from the hygroscopicity test mentioned above, the various hydrates of alfuzosin hydrochloride were kept under drying conditions for the monitoring of the change in moisture content.
In this connection, simultaneously in the present test, also the crystal state of dried samples after a three-days' drying was investigated for the dihydrate of the present invention by X-ray powder diffraction under drying conditions, for comparison with patterns of X-ray powder diffraction under normal conditions.

[3] = Test on Stability to Heating, Humidifying and Light; format: physicochemical; settings: for stability, overall: conditions of table 1; for moisture content of crystal form: initial, before test
Description: The stability test was carried out following the procedures described below.
A 0.3 g-portion of each of the anhydrous form and respective hydrates of alfuzosin hydrochloride in crystal forms was placed in a glass bottle (sealed) and in a desiccator filled with a NaCl saturated solution, and preserved at 70° C. with a heater (Toyama Industry), after which the physicochemical stability of each compound was evaluated by X-ray powder diffraction and high performance liquid chromatography (HPLC).
Separately, 0.3 g of each of the anhydrous form and respective hydrates of alfuzosin hydrochloride in crystal forms was placed in a plastic dish which was then covered with a polyvinylidene chloride film, followed by irradiation with a chemical lamp (dominant wavelength: 365 nm) for 24 hours, for the evaluation of the light stability in the same manner as in the above.
HPLC apparatus (manufactured by Shimazu)
Detection with UV (at 254 nm); column (Nucleosil 5C18, 150 mm×4 mm, M, Nagel; flow rate 1.0 ml/m; room temperature; eluent, NaClO4 (in 1000 ml of water, 7 g, pH 3.5)- acetonitrile-THF (155:55:45): internal standard, p-chloroacetanilide (0.5 mg/ml).

[4] = Accelerated Test (100 °C and 120 °C, X-ray powder diffraction); format: physicochemical; settings: 45 min.
α1 -adrenergic receptor = settings: cited from earlier work
[5] = overall stability of crystal forms (tests 1-4); format: physicochemical; settings: normal preservation (25° C., RH 40-80%) and heating (50°-60° C.); Hydrochloride Dihydrate
[6] = Hygroscopicity Test (25 °C, various relative humidities, 10 days); format: physicochemical
Description: A 0.2 g-portion of a sample of each of the anhydrous form and respective hydrates of alfuzosin hydrochloride was placed in a desiccator containing a saturated solution of the salts listed hereunder (at 25° C.), and the relationship between the relative humidity at which the hydrated states of the respective compounds become. stable physically and the hygroscopicity of polymorphic hydrated forms of those compounds was investigated. The respective samples were brought to equilibrium by storage for 10 days under the respective conditions. For the setting up of the relative humidity (RH: %) was used a saturated solution of salts listed below:
RH 0%, dry P2 O5; RH 11%, LiCl; RH 22%, CH3 COOK; RH 33%, MgCl2; RH 43%, K2 CO3.2H2 O; RH 53%, Mg(NO3)2; RH 64%, CoCl2.6H2 O; RH 75%, NaCl; RH 84%, KCl; RH 93%, KNO3; RH 100%, water.

[7] = Chemical lamp (365 nm), 24 hours
[8] = after 70° C., 9 days at RH 75%, hydrochloride
[9] = after 70° C., 9 days, hydrochloride
[10] = after chemical lamp (365 nm), 24 hours, hydrochloride

With COc1cc2nc(N(C)CCCNC(=O)C3CCCO3)nc(N)c2cc1OC (centres unmarked) [Tetrahydrate (TETRA), alfuzosin hydrochloride tetrahydrate] the crystal form ([1]; 100° C., 30 min.) was “TETRA + DI”, the crystal form change ([1]; 100° C.) was “changed into the dihydrate by degrees” and the loss of water ([2]; drying conditions) was “lost most of the water in 1 day”. For the same compound, the DI content ([3]; 70° C., 9 days) was 26%, the TETRA content ([3]; 70° C., 9 days) was 74% and the DI content ([3]; 70° C., 9 days at RH 75%) was 98%. It also gave a TETRA content ([3]; 70° C., 9 days at RH 75%) of 2%, a moisture content ([3]; after 70° C., 9 days) of 13.19% and a moisture content ([3]; after 70° C., 9 days at RH 75%) of 8.25%. The moisture content ([3]; after chemical lamp (365 nm), 24 hours) was 15.18%, the “stability, overall” value [3] was “changed partially into the dihydrate, so they are considered unstable” and the “moisture content of crystal form” value [3] was 14.93%. For the same compound, the crystal form change [4] was “changed into the dihydrate”.

In the case of COc1cc2nc(N(C)CCCNC(=O)C3CCCO3)nc(N)c2cc1OC (centres unmarked) [alfuzosin hydrochloride], the “α1 -adrenergic receptor antagonism” value (α1 -adrenergic receptor) is given as “antagonist of α1 -adrenergic receptor”.

For COc1cc2nc(N(C)CCCNC(=O)C3CCCO3)nc(N)c2cc1OC (centres unmarked) [Trihydrate (TRI), trihydrate of alfuzosin hydrochloride], the crystal form ([1]; 100° C., 30 min., hydrochloride) was “TRI”, the crystal form ([1]; 100° C., 60 min., hydrochloride) was “TRI + DI” and the crystal form ([1]; 100° C., 90 min., hydrochloride) was “TRI + DI”. For the same compound, the crystal form ([1]; 100° C., 120 min., hydrochloride) was “TRI + DI”, the crystal form change ([1]; 100° C.) was “changed into the dihydrate by degrees” and the loss of water ([2]; drying conditions) was “lost most of the water in 1 day”. For the same compound, the TRI content ([3]; 70° C., 9 days) was 68%, the TRI content ([3]; 70° C., 9 days at RH 75%) was 84% and the DI content ([3]; 70° C., 9 days at RH 75%, hydrochloride) was 16%. The DI content ([3]; 70° C., 9 days, hydrochloride) was 37%, the stability [3, 7] was “Stable” and the moisture content [3, 8] was 12.03%. The moisture content [3, 9] was 11.05%, the moisture content [3, 10] was 12.87% and the “stability, overall” value ([3]; hydrochloride) was “changed partially into the dihydrate, so they are considered unstable”. For the same compound, the “moisture content of crystal form” value ([3]; hydrochloride) was 12.75%, the crystal form ([4]; hydrochloride) was “AN + DI + TRI” and the crystal form change ([4]; hydrochloride) was “changed into a mixture of the anhydrous form, dihydrate and trihydrate”.

In the case of COc1cc2nc(N(C)CCCNC(=O)C3CCCO3)nc(N)c2cc1OC (centres unmarked) [Dihydrate (DI), Alfuzosin Hydrochloride Dihydrate], the time stable ([1]; 100° C.) is reported as ≥ 2 h, the time stable ([1]; 120° C.) is reported as ≥ 0.75 h and the dehydration process ([2]; drying conditions) is reported as “goes very slowly”. For the same compound, the “change in moisture content” value ([2]; drying conditions, 3 days) was “no significant change in moisture content”, the “crystal form after drying” value ([2]; three-days' drying, X-ray powder diffraction) was “retains its original crystal form, with some drop in degree of crystallization” and the “relative stability among crystal forms” value [5] was “the stablest crystal form”. The stability ([3]; 70° C., 9 days) was “Stable”, the stability ([3]; 70° C., 9 days at RH 75%) was “Stable” and the stability [3, 7] was “Stable”. It also gave a moisture content ([3]; after 70° C., 9 days at RH 75%, Hydrochloride Dihydrate) of 8.48%, a moisture content ([3]; after 70° C., 9 days, Hydrochloride Dihydrate) of 8.41% and a moisture content ([3]; after chemical lamp (365 nm), 24 hours, Hydrochloride Dihydrate) of 8.40%. For the same compound, the “stability, overall” value ([3]; Hydrochloride Dihydrate) was “extremely stable” and the “moisture content of crystal form” value ([3]; Hydrochloride Dihydrate) was 8.14%.

With COc1cc2nc(N(C)CCCNC(=O)C3CCCO3)nc(N)c2cc1OC (centres unmarked) [Anhydrous, anhydrous alfuzosin hydrochloride] the “relative humidity at which stable” value ([6]; 25° C., 10 days) was ≤ 75%, the equilibrium moisture content ([6]; RH over 75%, 25° C.) was 12% and the “moisture content change at RH over 75%” value ([6]; RH over 75%, 25° C.) was “increased significantly”. The “moisture content, equivalent moles of water” value ([6]; equilibrium, RH over 75%, 25° C.) was 3 moles of water, the “crystal form change on preservation” value ([6]; relative humidity exceeding 75%) was “the crystal structure of the anhydrous formchanges, thereby providing a trihydrate” and the stability ([3]; 70° C., 9 days) was “Stable”. The stability ([3]; 70° C., 9 days at RH 75%) was “Stable”, the stability [3, 7] was “Stable” and the moisture content [3, 8] was 0.7%. The moisture content [3, 9] was 1.33%, the moisture content [3, 10] was 0.66% and the “stability, overall” value ([3]; listed as anhydrous form, hydrochloride) was “extremely stable”. For the same compound, the “moisture content of crystal form” value ([3]; hydrochloride) was 0.1%.
